In patent publication US10858335B2 (Rigel Pharmaceuticals, Inc., priority 2014, dated 2020):
Counter-ions that a name gives are not always drawn.

tested on: GDF8 signaling (p-SMAD-3 (Ser423/425)); assay: AlphaScreen SureFire SMAD3 (p-Ser423/425) assay, GDF8-stimulated cells (GDF pSMAD); assay type: cell-based; details: GDF8-stimulated pSMAD3, MPC11; tested as the salt form given; read-out: GDF pSMAD (MPC11) (μM), inhibition of GDF8 signaling

`CN(C)CCNc1ncnc2ccc(-c3cccnc3-c3cc(Cl)ccc3F)cc12` [compound 1093] gave an IC50 of 0.2 µM.

same assay, conditions: Mus musculus, MPC-11, GDF8-stimulated pSMAD3, MPC11; tested as the salt form given; read-out: GDF pSMAD (MPC11) (μM), inhibition of GDF8 signaling

`Nc1ncnc2ccc(-c3cccnc3-c3cc(O)ccc3F)cc12` [compound 1006, 3-(3-(4-aminoquinazolin-6-yl)pyridin-2-yl)-4-fluorophenol] was tested, and the IC50 was 0.735 µM.

same assay, conditions: Mus musculus, MPC-11, MPC11; GDF8-stimulated; p-SMAD3 AlphaScreen; read-out: GDF pSMAD (MPC11) (inhibition of GDF8 signaling)

Compared with `Cc1cc(-c2ncccc2-c2ccc3ncnc(NCCc4cccnc4)c3c2)ccc1F` [compound 414, 6-(2-(4-Fluoro-3-methylphenyl)pyridin-3-yl)-N-(2-(pyridin-3-yl)ethyl)quinazolin-4-amine], `Cc1cc(-c2ncccc2-c2ccc3ncoc3c2)ccc1F` [Compound 180, 6-(2-(4-Fluoro-3-methylphenyl)pyridin-3-yl)benzo[d]oxazole] is 7.9-fold lower in IC50: 3.33 µM for the first, 0.422 µM for the second.

`Fc1ccc(-c2ncccc2-c2ccc3ncccc3n2)cc1Cl` [compound 691, 2-(2-(3-Chloro-4-fluorophenyl)pyridin-3-yl)-1,5-naphthyridine] and `Cc1cccc(-c2ncccc2-c2ccc3ncccc3n2)c1` [compound 536, 2-(2-(m-Tolyl)pyridin-3-yl)-1,5-naphthyridine] are within 1.5-fold of each other in IC50: 0.447 µM for the first, 0.404 µM for the second.

First: NC(=O)c1ccnc2ccc(-c3cccnc3-c3cccc(Cl)c3)cc12 [compound 848, 6-(2-(3-Chlorophenyl)pyridin-3-yl)quinoline-4-carboxamide]
Second: Nc1ncnc2ccc(-c3cccnc3-c3cccc(O)c3)cc12 [compound 456, 3-(3-(4-Aminoquinazolin-6-yl)pyridin-2-yl)phenol]
The IC50 of the first is 37-fold higher: 11.1 µM for the first, 0.299 µM for the second.

Going from `COc1ccc(CNc2cnc(-c3ccc(F)c(C)c3)c(-c3ccc4ncsc4c3)c2)cn1` [compound 324, 5-(Benzo[d]thiazol-6-yl)-6-(4-fluoro-3-methylphenyl)-N-((6-methoxypyridin-3-yl)methyl)pyridin-3-amine] to `Cc1cc(-c2ncc(NCc3cnc4[nH]ccc4c3)cc2-c2ccc3ncsc3c2)ccc1F` [compound 329, N-((1H-Pyrrolo[2,3-b]pyridin-5-yl)methyl)-5-(benzo[d]thiazol-6-yl)-6-(4-fluoro-3-methylphenyl)pyridin-3-amine], the IC50 rises from 0.461 µM to 0.803 µM (1.7-fold). The first is the more potent here.

First: Cc1cc(-c2ncccc2-c2ccc3c(cnn3C(=O)NCCN(C)C)c2)ccc1F [compound 633, N-(2-(Dimethylamino)ethyl)-5-(2-(4-fluoro-3-methylphenyl)pyridin-3-yl)-1H-indazole-1-carboxamide]
Second: Cc1cc(-c2ncccc2-c2ccc3ncc(C#N)n3c2)ccc1F [compound 557, 6-(2-(4-Fluoro-3-methylphenyl)pyridin-3-yl)imidazo[1,2-a]pyridine-3-carbonitrile]
The IC50 of the first is 26-fold higher: 11.3 µM for the first, 0.439 µM for the second.

`Cc1cc(-c2ncccc2-c2ccn3ncc(C(=O)N[C@H]4CCCC[C@@H]4N)c3c2)ccc1F` [compound 664, N-((1S,2S)-2-Aminocyclohexyl)-5-(2-(4-fluoro-3-methylphenyl)pyridin-3-yl)pyrazolo[1,5-a]pyridine-3-carboxamide] and `Cc1cccc(-c2ncccc2-c2ccn3cncc3c2)c1` [compound 595, 7-(2-(m-Tolyl)pyridin-3-yl)imidazo[1,5-a]pyridine] are within 1.5-fold of each other in IC50: 1.38 µM for the first, 1.16 µM for the second.

Compared with `Cc1cc(-c2ncccc2-c2ccc3ncc(C(=O)OC[C@@H](N)Cc4c[nH]c5ccccc45)n3c2)ccc1F` [compound 615, (S)-2-Amino-3-(1H-indol-3-yl)propyl 6-(2-(4-fluoro-3-methylphenyl)pyridin-3-yl)imidazo[1,2-a]pyridine-3-carboxylate formic acid salt], `Cc1cccc(-c2ncccc2-c2ccc3ncc(C#N)n3c2)c1` [compound 558, 6-(2-(m-Tolyl)pyridin-3-yl)imidazo[1,2-a]pyridine-3-carbonitrile] is 11-fold lower in IC50: 2.13 µM for the first, 0.188 µM for the second.

`Cn1cnc2ccc(-c3cccnc3-c3ccc(F)c(Cl)c3F)cc21` [compound 967, 6-(2-(3-Chloro-2,4-difluorophenyl)pyridin-3-yl)-1-methyl-1H-benzo[d]imidazole] was tested, and the IC50 was 1.44 µM.
